Reference: US20250115597A1, “TYK2 INHIBITORS AND COMPOSITIONS AND METHODS THEREOF” (LYNK PHARMACEUTICALS CO. LTD., priority 2021, published 2025)
pIC50: −log10 of the molar value.

Columns and labels:
JAK1-JH2 domain = molecular target: T1, JAK1-JH2 domain (Homo sapiens, UniProt P23458); assay: Binding activity test for JH2 domain of JAK1 (Tb-antibody/tracer FRET)
T1 construct: IC50 on JH2 domain activity (nM)
Description: (§1) Binding Activity Test for […] Domain of JAK1 and TYK2 The compounds are prepared in DMSO for 200× top dose, then serial dilute it with 27-fold for 3 more points. Add 8 μL/well in echo source plate, echo will add 75 nL/well with 3-fold serial dilution for 11 points in assay plate. 75 nL DMSO for high control and low control. […] For low control, add 5 μL/well assay buffer. And then spin down at 1000 rpm and centrifuge for 30 seconds. After enzyme system prepared, add 5 μL of Tb-antibody solution into each wells of assay plate. Spin down at 1000 rpm and centrifuge for 30 sec. After Tb-antibody added, also add 5 μL of tracer into the assay plate. Spin down at 1000 rpm and centrifuge for 30 sec. Incubate for 60 mins at 25° C. firstly and then continue to incubate the plate at 4° C. overnight. Read by envision in FRET mode. The Luminescence value was recorded by a multi-label reader Envision (PerkinElmer).

[1] = molecular target: T2, Ba/F3-FL-TYK2-P760L cells (Homo sapiens, UniProt P29597, P760L, cells depend on it); assay: Anti-proliferative assay, Ba/F3-FL-TYK2-P760L cells (Cell-Titer Glo); type: cell-based; conditions: 72 h, read-out: BaF3-FL-T2P760L IC50
T2 construct: BaF3-FL-T2P760L (nM)
In short: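 Compound exposure ran 72 h at 37 °C in 5% CO2 across nine 3-fold concentrations from a 20 μM top dose, added 24 h after seeding 2000 cells/well.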

TYK2-JH2 domain = molecular target: T3, TYK2-JH2 domain (Homo sapiens, UniProt P29597); assay: Binding activity test for JH2 domain of TYK2 (Tb-antibody/tracer FRET); conditions: for JAK1/TYK2 selectivity: ratio JAK1-JH2 IC50 / TYK2-JH2 IC50
T3 construct: IC50 on JH2 domain activity (nM)
Description: as §1

T1 sequence (P23458 583-855 limits assumed): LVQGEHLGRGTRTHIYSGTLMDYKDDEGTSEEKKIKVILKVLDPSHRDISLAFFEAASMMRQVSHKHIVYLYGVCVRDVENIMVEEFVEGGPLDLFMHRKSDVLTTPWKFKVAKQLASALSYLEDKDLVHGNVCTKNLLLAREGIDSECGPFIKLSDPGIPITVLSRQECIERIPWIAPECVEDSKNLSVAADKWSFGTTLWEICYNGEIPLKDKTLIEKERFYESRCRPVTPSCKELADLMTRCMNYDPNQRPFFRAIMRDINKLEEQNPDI
T3 sequence (P29597 589-875 limits assumed): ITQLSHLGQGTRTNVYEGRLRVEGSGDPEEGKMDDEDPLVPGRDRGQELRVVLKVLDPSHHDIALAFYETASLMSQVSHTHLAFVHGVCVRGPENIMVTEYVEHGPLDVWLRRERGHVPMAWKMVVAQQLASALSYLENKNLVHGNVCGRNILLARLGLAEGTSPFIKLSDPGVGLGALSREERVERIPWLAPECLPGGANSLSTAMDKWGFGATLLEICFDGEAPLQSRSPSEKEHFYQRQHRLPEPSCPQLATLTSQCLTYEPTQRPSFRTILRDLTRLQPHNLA
T2 sequence (P29597 whole entry P760L): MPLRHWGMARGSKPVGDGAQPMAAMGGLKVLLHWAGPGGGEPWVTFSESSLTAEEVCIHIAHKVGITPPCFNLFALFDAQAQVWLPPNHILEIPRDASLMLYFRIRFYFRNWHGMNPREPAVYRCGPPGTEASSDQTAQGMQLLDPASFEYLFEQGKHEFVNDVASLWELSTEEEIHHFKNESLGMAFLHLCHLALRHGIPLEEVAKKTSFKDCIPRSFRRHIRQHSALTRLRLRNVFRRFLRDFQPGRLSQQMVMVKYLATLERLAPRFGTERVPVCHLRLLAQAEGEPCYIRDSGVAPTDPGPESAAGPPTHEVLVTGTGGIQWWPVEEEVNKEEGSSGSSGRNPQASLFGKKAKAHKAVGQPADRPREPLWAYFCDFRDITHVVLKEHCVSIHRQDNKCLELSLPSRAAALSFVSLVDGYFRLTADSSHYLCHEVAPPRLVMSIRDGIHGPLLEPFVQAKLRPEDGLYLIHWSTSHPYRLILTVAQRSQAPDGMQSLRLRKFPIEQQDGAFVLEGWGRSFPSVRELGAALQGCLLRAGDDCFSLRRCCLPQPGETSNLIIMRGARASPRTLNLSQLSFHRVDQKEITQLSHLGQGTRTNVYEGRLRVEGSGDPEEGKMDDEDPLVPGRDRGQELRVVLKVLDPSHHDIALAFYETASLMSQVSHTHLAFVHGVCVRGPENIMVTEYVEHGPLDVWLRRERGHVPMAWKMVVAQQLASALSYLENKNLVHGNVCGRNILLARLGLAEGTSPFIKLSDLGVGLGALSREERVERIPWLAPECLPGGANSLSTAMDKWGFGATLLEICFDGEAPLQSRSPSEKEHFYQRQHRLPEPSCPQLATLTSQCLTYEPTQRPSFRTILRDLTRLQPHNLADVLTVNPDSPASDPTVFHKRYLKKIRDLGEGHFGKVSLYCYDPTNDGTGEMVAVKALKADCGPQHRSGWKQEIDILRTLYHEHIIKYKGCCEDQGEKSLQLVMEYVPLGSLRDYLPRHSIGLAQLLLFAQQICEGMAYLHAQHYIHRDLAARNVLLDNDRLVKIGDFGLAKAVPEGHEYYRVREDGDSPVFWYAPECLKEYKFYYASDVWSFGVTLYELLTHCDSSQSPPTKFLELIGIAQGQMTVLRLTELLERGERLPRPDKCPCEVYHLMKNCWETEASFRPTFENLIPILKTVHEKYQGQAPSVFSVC

| pIC50 (JAK1-JH2 domain) | GI50 [1] [nM] | pIC50 (TYK2-JH2 domain) | JAK1/TYK2 selectivity (TYK2-JH2 domain) | SMILES |
| --- | --- | --- | --- | --- |
| 7.54 | 342 | 9.13 | 39.25 | [2H]C([2H])([2H])NC(=O)c1cnc(NC(=O)C2CC2)cc1Nc1ccc2cnn(C(C)C#N)c2c1OC (single isomer, unassigned) [Example 249B, (S*)-4-((1-(1-cyanoethyl)-7-methoxy-1H-indazol-6-yl)amino)-6-(cyclopropanecarboxamido)-N-(methyl-d3)nicotinamide] |
| 7.01 | 541 | 8.99 | 94.03 | [2H]C([2H])([2H])NC(=O)c1cnc(NC(=O)C2CC2)cc1Nc1ccn2ncc(C(C)C#N)c2c1OC (single isomer, unassigned) [Example 251A, (R*)-4-((3-(1-cyanoethyl)-4-methoxypyrazolo[1,5-a]pyridin-5-yl)amino)-6-(cyclopropanecarboxamido)-N-(methyl-d3)nicotinamide] |
| 8.34 | 103 | 9.58 | 17.30 | [2H]C([2H])([2H])NC(=O)c1cnc(NC(=O)C2CC2)cc1Nc1ccn2ncc(C(C)C#N)c2c1OC (single isomer, unassigned) [Example 251B, (S*)-4-((3-(1-cyanoethyl)-4-methoxypyrazolo[1,5-a]pyridin-5-yl)amino)-6-(cyclopropanecarboxamido)-N-(methyl-d3)nicotinamide] |

Continued, compound first:

| SMILES | pIC50 (JAK1-JH2 domain) | GI50 [1] [nM] | pIC50 (TYK2-JH2 domain) | JAK1/TYK2 selectivity (TYK2-JH2 domain) |
| --- | --- | --- | --- | --- |
| CCNC(=O)c1cnc(NC(=O)C2CC2)cc1Nc1ccc2cnn(CC)c2c1OC [Example 97, 6-(Cyclopropanecarboxamido)-N-ethyl-4-((1-ethyl-7-methoxy-1H-indazol-6-yl)amino)nicotinamide] | < 6.53 | 1270 | 8.36 | – |
| [2H]C([2H])([2H])NC(=O)c1cnc(NC(=O)C2CC2)cc1Nc1nn(CCC)c2ccn(CC(F)(F)F)c(=O)c12 [Example 208, 6-(Cyclopropanecarboxamido)-N-(methyl-d3)-4-((4-oxo-1-propyl-5-(2,2,2-trifluoroethyl)-4,5-dihydro-1H-pyrazolo[4,3-c]pyridin-3-yl)amino)nicotinamide] | 7.46 | 64.6 | 9.61 | 140.1 |
| [2H]C([2H])([2H])NC(=O)c1cnc(NC(=O)C2CC2)cc1Nc1cn(CC(F)(F)F)c2ccn(CC)c(=O)c12 [Example 209, 6-(Cyclopropanecarboxamido)-4-((5-ethyl-4-oxo-1-(2,2,2-trifluoroethyl)-4,5-dihydro-1H-pyrrolo[3,2-c]pyridin-3-yl)amino)-N-(methyl-d3)nicotinamide] | 7.95 | 52.6 | 9.80 | 70.8 |
| [2H]C([2H])([2H])NC(=O)c1cnc(NC(=O)CC)cc1Nc1ccc2cnn(CC)c2c1OC [Example 229, 4-((1-Ethyl-7-methoxy-1H-indazol-6-yl)amino)-N-(methyl-d3)-6-propionamidonicotinamide] | 6.98 | 564 | 8.77 | 62.5 |
| [2H]C([2H])([2H])NC(=O)c1cnc(NC(C)=O)cc1Nc1ccc2cnn(CC)c2c1OC [Example 230, 6-Acetamido-4-((1-ethyl-7-methoxy-1H-indazol-6-yl)amino)-N-(methyl-d3)nicotinamide] | 7.23 | 478 | 8.52 | 19.5 |
| [2H]C([2H])([2H])NC(=O)c1cnc(NC(=O)C2CC(C)C2)cc1Nc1ccc2cnn(CC)c2c1OC (centres unmarked) [Example 236, 4-((1-Ethyl-7-methoxy-1H-indazol-6-yl)amino)-N-(methyl-d3)-6-(3-methylcyclobutane-1-carboxamido)nicotinamide] | 7.36 | 892 | 9.01 | 45.2 |
